In US10617693B2, “Methods of treating and/or preventing actinic keratosis” (Athenex, Inc., priority 2017, dated 2020):

Test system: subjects with AK on the face or scalp
Assay: Phase 2a study KX01-AK-002: local skin reactions (grade 0 not present to 4 worst) and adverse events, 0.5 mg KX-01 on 25 cm^2
Format: in vivo, human
Text: An ongoing Phase 2a, open-label, multicenter, activity and safety study of KX-01 administered topically in subjects with AK on the face or scalp is described herein. […] Secondary objectives are to assess the activity of KX-01 administered topically during Days 1-57 based on reduction of AK lesion counts from baseline, assess the safety and tolerability and pharmacokinetics, and contrast the dose regimens (5-day treatment with 3-day treatment) in terms of activity and safety in subjects with AK on the face or scalp. This uncontrolled, nonrandomized trial is being conducted at 16 investigational sites in the United States. Enrollment is sequential for 2 cohorts of approximately 80 subjects each. Enrollment is closed for Cohort 1 and ongoing for Cohort 2. The two treatment cohorts are summarized below: • Cohort 1: 0.5 mg KX-01 administered topically to a contiguous treatment area of 25 cm^2 with 4-8 clinically typical AK lesions for 5 consecutive days • Cohort 2: 0.5 mg KX-01 administered topically to a contiguous treatment area of 25 cm^2 with 4-8 clinically typical AK lesions for 3 consecutive days
0.5 mg KX-01 is administered topically to an area of 25 cm^2 on the face or scalp by site staff on treatment days. […] AK lesion counts are recorded at baseline, days 8, 15, 29, and 57. […] Standardized photography of treatment area is performed at baseline, day 8 and day 57. Plasma samples are being collected at preplanned time points on days 1 and 5 for Cohort 1, and on days 1 and 3 for Cohort 2.
Absence or presence of hyperpigmentation, hypopigmentation and scarring are also assessed. Application site reactions not classified as LSRs are reported as AEs. […] LSRs and AEs are reported separately. All LSRs, pigmentation, and scarring in the treatment area will be followed to resolution or stabilization.
The range of possible composite scores is 0-24.
The Phase 2a trial described in Example 2a was completed with 84 eligible subjects enrolled in each of two cohorts: one cohort was subjected to the treatment for 5 consecutive days, and the other cohort was subjected to the treatment for 3 consecutive days. The results are described below and in FIG. 5.

## O=C(Cc1ccc(-c2ccc(OCCN3CCOCC3)cc2)cn1)NCc1ccccc1 [KX-01]
Day 3, Cohort 1 (5-day)
  Vesiculation/Pustulation grade 0, n/N subjects: 67/67
  Vesiculation/Pustulation grade 1, n/N subjects: 0
  Vesiculation/Pustulation grade 2, n/N subjects: 0
  Vesiculation/Pustulation grade 3, n/N subjects: 0
  Vesiculation/Pustulation grade 4, n/N subjects: 0
Day 4, Cohort 1 (5-day)
  Crusting grade 0, n/N subjects: 61/67
  Crusting grade 1, n/N subjects: 4/67
  Crusting grade 2, n/N subjects: 2/67
  Crusting grade 3, n/N subjects: 0
  Crusting grade 4, n/N subjects: 0
  Erosion/Ulceration grade 0, n/N subjects: 65/67
  Erosion/Ulceration grade 1, n/N subjects: 2/67
  Erosion/Ulceration grade 2, n/N subjects: 0
  Erosion/Ulceration grade 3, n/N subjects: 0
  Erosion/Ulceration grade 4, n/N subjects: 0
  Erythema grade 0, n/N subjects: 19/67
  Erythema grade 1, n/N subjects: 26/67
  Erythema grade 2, n/N subjects: 17/67
  Erythema grade 3, n/N subjects: 5/67
  Erythema grade 4, n/N subjects: 0
  Flaking/Scaling grade 0, n/N subjects: 43/67
  Flaking/Scaling grade 1, n/N subjects: 16/67
  Flaking/Scaling grade 2, n/N subjects: 5/67
  Flaking/Scaling grade 3, n/N subjects: 3/67
  Flaking/Scaling grade 4, n/N subjects: 0
  Swelling grade 0, n/N subjects: 65/67
  Swelling grade 1, n/N subjects: 2/67
  Swelling grade 2, n/N subjects: 0
  Swelling grade 3, n/N subjects: 0
  Swelling grade 4, n/N subjects: 0
  Vesiculation/Pustulation grade 0, n/N subjects: 66/67
  Vesiculation/Pustulation grade 1, n/N subjects: 1/67
  Vesiculation/Pustulation grade 2, n/N subjects: 0
  Vesiculation/Pustulation grade 3, n/N subjects: 0
  Vesiculation/Pustulation grade 4, n/N subjects: 0
Day 5, Cohort 1 (5-day)
  Crusting grade 0, n/N subjects: 56/67
  Crusting grade 1, n/N subjects: 9/67
  Crusting grade 2, n/N subjects: 2/67
  Crusting grade 3, n/N subjects: 0
  Crusting grade 4, n/N subjects: 0
  Erosion/Ulceration grade 0, n/N subjects: 61/67
  Erosion/Ulceration grade 1, n/N subjects: 6/67
  Erosion/Ulceration grade 2, n/N subjects: 0
  Erosion/Ulceration grade 3, n/N subjects: 0
  Erosion/Ulceration grade 4, n/N subjects: 0
  Erythema grade 0, n/N subjects: 12/67
  Erythema grade 1, n/N subjects: 19/67
  Erythema grade 2, n/N subjects: 27/67
  Erythema grade 3, n/N subjects: 9/67
  Erythema grade 4, n/N subjects: 0
  Flaking/Scaling grade 0, n/N subjects: 35/67
  Flaking/Scaling grade 1, n/N subjects: 21/67
  Flaking/Scaling grade 2, n/N subjects: 9/67
  Flaking/Scaling grade 3, n/N subjects: 2/67
  Flaking/Scaling grade 4, n/N subjects: 0
  Swelling grade 0, n/N subjects: 58/67
  Swelling grade 1, n/N subjects: 7/67
  Swelling grade 2, n/N subjects: 1/67
  Swelling grade 3, n/N subjects: 1/67
  Swelling grade 4, n/N subjects: 0
  Vesiculation/Pustulation grade 0, n/N subjects: 65/67
  Vesiculation/Pustulation grade 1, n/N subjects: 2/67
  Vesiculation/Pustulation grade 2, n/N subjects: 0
  Vesiculation/Pustulation grade 3, n/N subjects: 0
  Vesiculation/Pustulation grade 4, n/N subjects: 0
Day 8, Cohort 1 (5-day)
  Crusting grade 0, n/N subjects: 51/67
  Crusting grade 1, n/N subjects: 15/67
  Crusting grade 2, n/N subjects: 1/67
  Crusting grade 3, n/N subjects: 0
  Crusting grade 4, n/N subjects: 0
  Erosion/Ulceration grade 0, n/N subjects: 65/67
  Erosion/Ulceration grade 1, n/N subjects: 1/67
  Erosion/Ulceration grade 2, n/N subjects: 1/67
  Erosion/Ulceration grade 3, n/N subjects: 0
  Erosion/Ulceration grade 4, n/N subjects: 0
  Erythema grade 0, n/N subjects: 14/67
  Erythema grade 1, n/N subjects: 24/67
  Erythema grade 2, n/N subjects: 25/67
  Erythema grade 3, n/N subjects: 4/67
  Erythema grade 4, n/N subjects: 0
  Flaking/Scaling grade 0, n/N subjects: 26/67
  Flaking/Scaling grade 1, n/N subjects: 18/67
  Flaking/Scaling grade 2, n/N subjects: 15/67
  Flaking/Scaling grade 3, n/N subjects: 8/67
  Flaking/Scaling grade 4, n/N subjects: 0
  Swelling grade 0, n/N subjects: 64/67
  Swelling grade 1, n/N subjects: 3/67
  Swelling grade 2, n/N subjects: 0
  Swelling grade 3, n/N subjects: 0
  Swelling grade 4, n/N subjects: 0
  Vesiculation/Pustulation grade 0, n/N subjects: 67/67
  Vesiculation/Pustulation grade 1, n/N subjects: 0
  Vesiculation/Pustulation grade 2, n/N subjects: 0
  Vesiculation/Pustulation grade 3, n/N subjects: 0
  Vesiculation/Pustulation grade 4, n/N subjects: 0
Day 15, Cohort 1 (5-day)
  Crusting grade 0, n/N subjects: 63/67
  Crusting grade 1, n/N subjects: 4/67
  Crusting grade 2, n/N subjects: 0
  Crusting grade 3, n/N subjects: 0
  Crusting grade 4, n/N subjects: 0
  Erosion/Ulceration grade 0, n/N subjects: 66/67
  Erosion/Ulceration grade 1, n/N subjects: 1/67
  Erosion/Ulceration grade 2, n/N subjects: 0
  Erosion/Ulceration grade 3, n/N subjects: 0
  Erosion/Ulceration grade 4, n/N subjects: 0
  Erythema grade 0, n/N subjects: 27/67
  Erythema grade 1, n/N subjects: 25/67
  Erythema grade 2, n/N subjects: 13/67
  Erythema grade 3, n/N subjects: 2/67
  Erythema grade 4, n/N subjects: 0
  Flaking/Scaling grade 0, n/N subjects: 39/67
  Flaking/Scaling grade 1, n/N subjects: 14/67
  Flaking/Scaling grade 2, n/N subjects: 9/67
  Flaking/Scaling grade 3, n/N subjects: 5/67
  Flaking/Scaling grade 4, n/N subjects: 0
  Swelling grade 0, n/N subjects: 67/67
  Swelling grade 1, n/N subjects: 0
  Swelling grade 2, n/N subjects: 0
  Swelling grade 3, n/N subjects: 0
  Swelling grade 4, n/N subjects: 0
  Vesiculation/Pustulation grade 0, n/N subjects: 67/67
  Vesiculation/Pustulation grade 1, n/N subjects: 0
  Vesiculation/Pustulation grade 2, n/N subjects: 0
  Vesiculation/Pustulation grade 3, n/N subjects: 0
  Vesiculation/Pustulation grade 4, n/N subjects: 0
Day 29, Cohort 1 (5-day)
  Crusting grade 0, n/N subjects: 65/67
  Crusting grade 1, n/N subjects: 2/67
  Crusting grade 2, n/N subjects: 0
  Crusting grade 3, n/N subjects: 0
  Crusting grade 4, n/N subjects: 0
  Erosion/Ulceration grade 0, n/N subjects: 67/67
  Erosion/Ulceration grade 1, n/N subjects: 0
  Erosion/Ulceration grade 2, n/N subjects: 0
  Erosion/Ulceration grade 3, n/N subjects: 0
  Erosion/Ulceration grade 4, n/N subjects: 0
  Erythema grade 0, n/N subjects: 45/67
  Erythema grade 1, n/N subjects: 18/67
  Erythema grade 2, n/N subjects: 4/67
  Erythema grade 3, n/N subjects: 0
  Erythema grade 4, n/N subjects: 0
  Flaking/Scaling grade 0, n/N subjects: 51/67
  Flaking/Scaling grade 1, n/N subjects: 13/67
  Flaking/Scaling grade 2, n/N subjects: 2/67
  Flaking/Scaling grade 3, n/N subjects: 1/67
  Flaking/Scaling grade 4, n/N subjects: 0
  Swelling grade 0, n/N subjects: 66/67
  Swelling grade 1, n/N subjects: 1/67
  Swelling grade 2, n/N subjects: 0
  Swelling grade 3, n/N subjects: 0
  Swelling grade 4, n/N subjects: 0
  Vesiculation/Pustulation grade 0, n/N subjects: 67/67
  Vesiculation/Pustulation grade 1, n/N subjects: 0
  Vesiculation/Pustulation grade 2, n/N subjects: 0
  Vesiculation/Pustulation grade 3, n/N subjects: 0
  Vesiculation/Pustulation grade 4, n/N subjects: 0
Day 57, Cohort 1 (5-day)
  Crusting grade 0, n/N subjects: 63/67
  Crusting grade 1, n/N subjects: 4/67
  Crusting grade 2, n/N subjects: 0
  Crusting grade 3, n/N subjects: 0
  Crusting grade 4, n/N subjects: 0
  Erosion/Ulceration grade 0, n/N subjects: 67/67
  Erosion/Ulceration grade 1, n/N subjects: 0
  Erosion/Ulceration grade 2, n/N subjects: 0
  Erosion/Ulceration grade 3, n/N subjects: 0
  Erosion/Ulceration grade 4, n/N subjects: 0
  Erythema grade 0, n/N subjects: 53/67
  Erythema grade 1, n/N subjects: 12/67
  Erythema grade 2, n/N subjects: 2/67
  Erythema grade 3, n/N subjects: 0
  Erythema grade 4, n/N subjects: 0
  Flaking/Scaling grade 0, n/N subjects: 57/67
  Flaking/Scaling grade 1, n/N subjects: 10/67
  Flaking/Scaling grade 2, n/N subjects: 0
  Flaking/Scaling grade 3, n/N subjects: 0
  Flaking/Scaling grade 4, n/N subjects: 0
  Swelling grade 0, n/N subjects: 67/67
  Swelling grade 1, n/N subjects: 0
  Swelling grade 2, n/N subjects: 0
  Swelling grade 3, n/N subjects: 0
  Swelling grade 4, n/N subjects: 0
  Vesiculation/Pustulation grade 0, n/N subjects: 67/67
  Vesiculation/Pustulation grade 1, n/N subjects: 0
  Vesiculation/Pustulation grade 2, n/N subjects: 0
  Vesiculation/Pustulation grade 3, n/N subjects: 0
  Vesiculation/Pustulation grade 4, n/N subjects: 0
After 5 days of treatment, interim
  Grade 4 LSRs: no Grade 4 LSRs were observed
Topically once daily for 5 days
  Safety and tolerability: safe and well tolerated
